Measured values from PubChem BioAssay (NCI).
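GI50: concentration for 50% inhibition of growth. TGI: total growth inhibition.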

Legend:
Assay in all cases: DTP human tumour cell line panel, 384-well format; in the data active = GI50 below about 0.43 µM; inactive = the rest
786-0 renal = tested on: 786-0 renal
A498 renal = tested on: A498 renal
A549 NSCLC = tested on: A549 NSCLC
ACHN renal = tested on: ACHN renal
BT-549 breast = tested on: BT-549 breast
CAKI-1 renal = tested on: CAKI-1 renal
CCRF-CEM leukemia = tested on: CCRF-CEM leukemia
COLO 205 colon = tested on: COLO 205 colon
DU-145 prostate = tested on: DU-145 prostate
EKVX NSCLC = tested on: EKVX NSCLC
HCC-2998 colon = tested on: HCC-2998 colon
HCT-116 colon = tested on: HCT-116 colon
HCT-15 colon = tested on: HCT-15 colon
HL-60(TB) leukemia = tested on: HL-60(TB) leukemia
HOP-62 NSCLC = tested on: HOP-62 NSCLC
HOP-92 NSCLC = tested on: HOP-92 NSCLC
HS 578T breast = tested on: HS 578T breast
HT29 colon = tested on: HT29 colon
IGROV1 ovarian = tested on: IGROV1 ovarian
K-562 leukemia = tested on: K-562 leukemia
KM12 colon = tested on: KM12 colon
LOX IMVI melanoma = tested on: LOX IMVI melanoma
M14 melanoma = tested on: M14 melanoma
MALME-3M melanoma = tested on: MALME-3M melanoma
MCF7 breast = tested on: MCF7 breast
MDA-MB-231 breast = tested on: MDA-MB-231 breast
MDA-MB-435 melanoma = tested on: MDA-MB-435 melanoma
MDA-MB-468 breast = tested on: MDA-MB-468 breast
MOLT-4 leukemia = tested on: MOLT-4 leukemia
NCI-H226 lung = tested on: NCI-H226 lung

Nc1ccn([C@@H]2C(F)=C(CO)[C@@H](O)[C@H]2O)c(=O)n1
> 73100 nM: TGI (ACHN renal)
21400 nM: TGI (HCT-116 colon)
3960 nM: TGI (COLO 205 colon)
5650 nM: TGI (HOP-92 NSCLC)
12000 nM: TGI (LOX IMVI melanoma)
2590 nM: TGI (CCRF-CEM leukemia)
> 100000 nM: TGI (786-0 renal) | TGI (BT-549 breast) | TGI (EKVX NSCLC) | TGI (HCC-2998 colon) | TGI (HCT-15 colon) | TGI (HS 578T breast) | TGI (IGROV1 ovarian) | TGI (K-562 leukemia) | TGI (KM12 colon) | TGI (MALME-3M melanoma) | TGI (MCF7 breast) | TGI (MDA-MB-435 melanoma) | TGI (MDA-MB-468 breast)
inactive: GI50 ([…]-0 renal) 1090 nM | GI50 (A498 renal) 1510 nM | GI50 (A549 NSCLC) 461 nM | GI50 (ACHN renal) 923 nM | GI50 (BT-549 breast) 25400 nM | GI50 (CCRF-CEM leukemia) 825 nM | GI50 (COLO 205 colon) 775 nM | GI50 (EKVX NSCLC) 33500 nM | GI50 (HCC-2998 colon) 1710 nM | GI50 (HCT-15 colon) 1090 nM | GI50 (HOP-62 NSCLC) 1260 nM | GI50 (HOP-92 NSCLC) 745 nM | GI50 (HS 578T breast) 13400 nM | GI50 (HT29 colon) 922 nM | GI50 (IGROV1 ovarian) 3950 nM | GI50 (K-562 leukemia) 474 nM | GI50 (KM12 colon) 2140 nM | GI50 (LOX IMVI melanoma) 791 nM | GI50 (M14 melanoma) 763 nM | GI50 (MALME-3M melanoma) 4430 nM | GI50 (MCF7 breast) 1020 nM | GI50 (MDA-MB-231 breast) 1320 nM | GI50 (MDA-MB-435 melanoma) 967 nM | GI50 (MDA-MB-468 breast) 38400 nM | GI50 (NCI-H226 lung) 13500 nM
active: GI50 (CAKI-1 renal) 383 nM | GI50 (DU-145 prostate) 396 nM | GI50 (HCT-116 colon) 409 nM | GI50 (HL-60(TB) leukemia) 374 nM | GI50 (MOLT-4 leukemia) 182 nM
> 21200 nM: TGI (M14 melanoma)
1810 nM: TGI (DU-145 prostate)
> 35600 nM: TGI (A549 NSCLC)
338 nM: TGI (MOLT-4 leukemia)
> 42700 nM: TGI (HT29 colon)
13600 nM: TGI (A498 renal)
31500 nM: TGI (HOP-62 NSCLC)
979 nM: TGI (HL-60(TB) leukemia)
> 93800 nM: TGI (MDA-MB-231 breast)
